Reference: ChEMBL document CHEMBL5120928, “A New Chemotype of Chemically Tractable Nonsteroidal Estrogens Based on a Thieno[2,3-d]pyrimidine Core” (ACS Med Chem Lett, 2022)
pEC50: −log10 of the molar value.

How the values were obtained:
[1] = target: T1, Estrogen receptor (Homo sapiens, UniProt P03372)
T1 sequence (P03372 whole entry): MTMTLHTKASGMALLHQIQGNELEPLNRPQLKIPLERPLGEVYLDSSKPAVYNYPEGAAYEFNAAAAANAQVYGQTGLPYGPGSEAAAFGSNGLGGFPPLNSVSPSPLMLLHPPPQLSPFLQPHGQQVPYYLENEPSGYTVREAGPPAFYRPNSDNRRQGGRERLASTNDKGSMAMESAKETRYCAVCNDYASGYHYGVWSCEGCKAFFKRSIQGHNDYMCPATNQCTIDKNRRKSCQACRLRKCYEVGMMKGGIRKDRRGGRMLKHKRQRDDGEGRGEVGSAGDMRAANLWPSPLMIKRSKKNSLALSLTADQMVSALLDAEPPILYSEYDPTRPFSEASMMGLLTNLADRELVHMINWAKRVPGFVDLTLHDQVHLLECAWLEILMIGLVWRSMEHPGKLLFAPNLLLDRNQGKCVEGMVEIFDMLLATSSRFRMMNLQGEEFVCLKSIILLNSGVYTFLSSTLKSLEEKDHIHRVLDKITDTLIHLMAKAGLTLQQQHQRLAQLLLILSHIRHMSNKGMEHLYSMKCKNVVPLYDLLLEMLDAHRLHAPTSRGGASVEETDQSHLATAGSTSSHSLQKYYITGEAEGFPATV
Description: Agonist activity at RST7-ERalpha (unknown origin) co-expressed with (ERE)TK-luciferase reporter plasmid transfected in human HepG2 cells incubated for 24 hrs by Renilla luciferase based reporter assay

[2] = target: T1, Estrogen receptor; remark: listed apart in the source

pEC50 [1]: < 5.00
pEC50 [2]: < 5.00
SMILES: Oc1ccc(CNc2nc(Cl)nc3scc(-c4ccccc4)c23)cc1O
